Values joined by “and” are separate entries in the source; they are usually repeats but may differ in a detail not shown here. Identical values can stand only once. Values belong to the compound of their own block, whether it stands above or below them.
System: 855422-203-R-J1-PDC complex spheroids, viability
Test: Anticancer human tumor 855422-203-R-J1-PDC patient-derived bladder carcinoma cell line growth inhibition [CLK]
Conditions: for viability, T/C: stronger effect = lower value
Summary of the method: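 Multi-cell-type spheroids combined patient-derived tumor cells with HUVEC endothelial cells and human mesenchymal stem cells. Paired agents were dosed in half-log steps down from about clinical Cmax, or from 10 microM where Cmax was unknown.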

[1] = curve of first compound, second compound 0.0316 µM
[2] = curve of first compound, second compound 0.1 µM
[3] = curve of first compound, second compound 0.316 µM
[4] = curve of first compound, second compound 1 µM
[5] = curve of first compound, second compound 3.16 µM
[6] = curve of first compound, second compound 10 µM
[7] = second compound 0.0316 µM, first compound 0.0316 µM
[8] = second compound 0.0316 µM, first compound 0.1 µM
[9] = second compound 0.0316 µM, first compound 0.316 µM
[10] = second compound 0.0316 µM, first compound 1 µM
[11] = second compound 0.1 µM, first compound 0.0316 µM
[12] = second compound 0.1 µM, first compound 0.1 µM
[13] = second compound 0.1 µM, first compound 0.316 µM
[14] = second compound 0.1 µM, first compound 1 µM
[15] = second compound 0.316 µM, first compound 0.0316 µM
[16] = second compound 0.316 µM, first compound 0.1 µM
[17] = second compound 0.316 µM, first compound 0.316 µM
[18] = second compound 0.316 µM, first compound 1 µM
[19] = second compound 1 µM, first compound 0.0316 µM
[20] = second compound 1 µM, first compound 0.1 µM
[21] = second compound 1 µM, first compound 0.316 µM
[22] = second compound 1 µM, first compound 1 µM
[23] = second compound 3.16 µM, first compound 0.0316 µM
[24] = second compound 3.16 µM, first compound 0.1 µM
[25] = second compound 3.16 µM, first compound 0.316 µM
[26] = second compound 3.16 µM, first compound 1 µM
[27] = second compound 10 µM, first compound 0.0316 µM
[28] = second compound 10 µM, first compound 0.1 µM
[29] = second compound 10 µM, first compound 0.316 µM
[30] = second compound 10 µM, first compound 1 µM
[31] = second compound 0.0316 µM, first compound 3.16 µM
[32] = second compound 0.0316 µM, first compound 10 µM
[33] = second compound 0.1 µM, first compound 3.16 µM
[34] = second compound 0.1 µM, first compound 10 µM
[35] = second compound 0.316 µM, first compound 3.16 µM
[36] = second compound 0.316 µM, first compound 10 µM
[37] = second compound 1 µM, first compound 3.16 µM
[38] = second compound 1 µM, first compound 10 µM
[39] = second compound 3.16 µM, first compound 3.16 µM
[40] = second compound 3.16 µM, first compound 10 µM
[41] = second compound 10 µM, first compound 3.16 µM
[42] = second compound 10 µM, first compound 10 µM
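Also: spheroids exposed to drugs for seven days before readout.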
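For viability, T/C in this document: 100% = DMSO vehicle control wells.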

Compound: CCN1CCN(Cc2ccc(Nc3ncc(F)c(-c4cc(F)c5nc(C)n(C(C)C)c5c4)n3)nc2)CC1 + CNC(=O)c1ccc(Nc2nc(OC3CCCC3)c3c(-c4ccc5nc(C)oc5c4)c[nH]c3n2)c(OC)c1
- IC50 [1]: > 1000 nM
- IC50 [2]: 6.4 nM
- IC50 [3]: < 3.16 nM
- IC50 [4]: < 3.16 nM
- IC50 [5]: < 3.16 nM
- IC50 [6]: < 3.16 nM
- viability, T/C (second compound 0.0316 µM, first compound 0.00316 µM): 88%
- viability, T/C (second compound 0.0316 µM, first compound 0.01 µM): 90.2%
- viability, T/C [7]: 74.8%
- viability, T/C [8]: 56.8%
- viability, T/C [9]: 56.4%
- viability, T/C [10]: 46.2%
- viability, T/C (second compound 0.1 µM, first compound 0.00316 µM): 59.3%
- viability, T/C (second compound 0.1 µM, first compound 0.01 µM): 48%
- viability, T/C [11]: 31.6%
- viability, T/C [12]: 33.7%
- viability, T/C [13]: 31.8%
- viability, T/C [14]: 37.3%
- viability, T/C (second compound 0.316 µM, first compound 0.00316 µM): 23.3%
- viability, T/C (second compound 0.316 µM, first compound 0.01 µM): 27.7%
- viability, T/C [15]: 25.9%
- viability, T/C [16]: 20.9%
- viability, T/C [17]: 28.7%
- viability, T/C [18]: 30.9%
- viability, T/C (second compound 1 µM, first compound 0.00316 µM): 19.8%
- viability, T/C (second compound 1 µM, first compound 0.01 µM): 23.9%
- viability, T/C [19]: 18%
- viability, T/C [20]: 22.9%
- viability, T/C [21]: 22.2%
- viability, T/C [22]: 23.9%
- viability, T/C (second compound 3.16 µM, first compound 0.00316 µM): 18.2%
- viability, T/C (second compound 3.16 µM, first compound 0.01 µM): 23.4%
- viability, T/C [23]: 19.8%
- viability, T/C [24]: 18.6%
- viability, T/C [25]: 26.9%
- viability, T/C [26]: 22.7%
- viability, T/C (second compound 10 µM, first compound 0.00316 µM): 18.2%
- viability, T/C (second compound 10 µM, first compound 0.01 µM): 22.1%
- viability, T/C [27]: 22.3%
- viability, T/C [28]: 24%
- viability, T/C [29]: 18.5%
- viability, T/C [30]: 20%

Compound: O=C(c1cc(Cc2n[nH]c(=O)c3ccccc23)ccc1F)N1CCN(C(=O)C2CC2)CC1 + CN1CCN(c2cc(C(=O)Nc3cc4cc(-c5cnn(C)c5)ccc4cn3)ccn2)CC1
- IC50 [1]: > 10000 nM
- IC50 [2]: > 10000 nM
- IC50 [3]: < 31.6 nM
- IC50 [4]: < 31.6 nM
- IC50 [5]: < 31.6 nM
- IC50 [6]: < 31.6 nM
- viability, T/C [7]: 97.5%
- viability, T/C [8]: 93.4%
- viability, T/C [9]: 94.5%
- viability, T/C [10]: 119%
- viability, T/C [31]: 106%
- viability, T/C [32]: 91.2%
- viability, T/C [11]: 79.5%
- viability, T/C [12]: 82%
- viability, T/C [13]: 86.8%
- viability, T/C [14]: 89.6%
- viability, T/C [33]: 83.5%
- viability, T/C [34]: 80.8%
- viability, T/C [15]: 7.7%
- viability, T/C [16]: 9.07%
- viability, T/C [17]: 12.2%
- viability, T/C [18]: 13.9%
- viability, T/C [35]: 9.53%
- viability, T/C [36]: 7.3%
- viability, T/C [19]: 0.24%
- viability, T/C [20]: 0.27%
- viability, T/C [21]: 0.24%
- viability, T/C [22]: 0.2%
- viability, T/C [37]: 2.03%
- viability, T/C [38]: 0.16%
- viability, T/C [23]: 0.76%
- viability, T/C [24]: 0.67%
- viability, T/C [25]: 1.9%
- viability, T/C [26]: 0.61%
- viability, T/C [39]: 1.44%
- viability, T/C [40]: 0.45%
- viability, T/C [27]: 0.43%
- viability, T/C [28]: 0.39%
- viability, T/C [29]: 0.38%
- viability, T/C [30]: 0.33%
- viability, T/C [41]: 0.7%
- viability, T/C [42]: 0.32%

Compound: CC(CO)NC(=O)c1cc(-c2ccc(Cl)cc2)nn(-c2cnn(C)c2)c1=O (stereo not given) + CN1CCN(c2cc(C(=O)Nc3cc4cc(-c5cnn(C)c5)ccc4cn3)ccn2)CC1
- IC50 [1]: > 10000 nM
- IC50 [2]: > 10000 nM
- IC50 [3]: < 31.6 nM
- IC50 [4]: < 31.6 nM
- IC50 [5]: < 31.6 nM
- IC50 [6]: < 31.6 nM
- viability, T/C [7]: 85.4%
- viability, T/C [8]: 97.9%
- viability, T/C [9]: 95.9%
- viability, T/C [10]: 104%
- viability, T/C [31]: 101%
- viability, T/C [32]: 90.2%
- viability, T/C [11]: 72.6%
- viability, T/C [12]: 83.2%
- viability, T/C [13]: 77.1%
- viability, T/C [14]: 93.9%
- viability, T/C [33]: 90.5%
- viability, T/C [34]: 69.4%
- viability, T/C [15]: 8.6%
- viability, T/C [16]: 12.4%
- viability, T/C [17]: 11.9%
- viability, T/C [18]: 12.4%
- viability, T/C [35]: 13.4%
- viability, T/C [36]: 9.74%
- viability, T/C [19]: 0.24%
- viability, T/C [20]: 0.3%
- viability, T/C [21]: 0.22%
- viability, T/C [22]: 0.28%
- viability, T/C [37]: 0.25%
- viability, T/C [38]: 0.24%
- viability, T/C [23]: 2.96%
- viability, T/C [24]: 0.65%
- viability, T/C [25]: 0.95%
- viability, T/C [26]: 0.69%
- viability, T/C [39]: 1.1%
- viability, T/C [40]: 0.53%
- viability, T/C [27]: 0.44%
- viability, T/C [28]: 0.45%
- viability, T/C [29]: 0.33%
- viability, T/C [30]: 1.12%
- viability, T/C [41]: 1.09%
- viability, T/C [42]: 0.43%

The next lines start with results.

- IC50 (curve of compound): 294 nM and 249 nM
Compound: CC(Nc1ccc2c(c1)OCCn1cc(N3C(=O)OCC3C(F)F)nc1-2)C(N)=O (stereo not given)
- viability, T/C (compound 0.0316 µM): 94.9% and 74%
- viability, T/C (compound 0.1 µM): 71% and 67.6%
- viability, T/C (compound 0.316 µM): 50.9% and 45.7%
- viability, T/C (compound 1 µM): 28.4% and 20.6%
- viability, T/C (compound 3.16 µM): 21.2% and 20.3%
- viability, T/C (compound 10 µM): 16.1% and 11.5%

- IC50 [1]: < 0.949 nM
- IC50 [2]: < 0.949 nM
- IC50 [3]: < 0.949 nM
- IC50 [4]: < 0.949 nM
- IC50 [5]: < 0.949 nM
- IC50 [6]: < 0.949 nM
Compound: CC(C)CC(NC(=O)C(Cc1ccccc1)NC(=O)c1cnccn1)B(O)O (stereo not given) + CNC(=O)c1ccc(Nc2nc(OC3CCCC3)c3c(-c4ccc5nc(C)oc5c4)c[nH]c3n2)c(OC)c1
- viability, T/C (second compound 0.0316 µM, first compound 0.000949 µM): 4.13%
- viability, T/C (second compound 0.0316 µM, first compound 0.003 µM): 0.22%
- viability, T/C (second compound 0.0316 µM, first compound 0.00949 µM): 0.2%
- viability, T/C (second compound 0.0316 µM, first compound 0.03 µM): 0.21%
- viability, T/C (second compound 0.0316 µM, first compound 0.0949 µM): 0.17%
- viability, T/C (second compound 0.0316 µM, first compound 0.3 µM): 0.18%
- viability, T/C (second compound 0.1 µM, first compound 0.000949 µM): 2.95%
- viability, T/C (second compound 0.1 µM, first compound 0.003 µM): 0.2%
- viability, T/C (second compound 0.1 µM, first compound 0.00949 µM): 0.18%
- viability, T/C (second compound 0.1 µM, first compound 0.03 µM): 0.17%
- viability, T/C (second compound 0.1 µM, first compound 0.0949 µM): 0.17%
- viability, T/C (second compound 0.1 µM, first compound 0.3 µM): 0.49%
- viability, T/C (second compound 0.316 µM, first compound 0.000949 µM): 2.47%
- viability, T/C (second compound 0.316 µM, first compound 0.003 µM): 0.17%
- viability, T/C (second compound 0.316 µM, first compound 0.00949 µM): 0.13%
- viability, T/C (second compound 0.316 µM, first compound 0.03 µM): 0.13%
- viability, T/C (second compound 0.316 µM, first compound 0.0949 µM): 0.12%
- viability, T/C (second compound 0.316 µM, first compound 0.3 µM): 0.54%
- viability, T/C (second compound 1 µM, first compound 0.000949 µM): 1.78%
- viability, T/C (second compound 1 µM, first compound 0.003 µM): 0.13%
- viability, T/C (second compound 1 µM, first compound 0.00949 µM): 0.13%
- viability, T/C (second compound 1 µM, first compound 0.03 µM): 0.1%
- viability, T/C (second compound 1 µM, first compound 0.0949 µM): 0.14%
- viability, T/C (second compound 1 µM, first compound 0.3 µM): 0.1%
- viability, T/C (second compound 3.16 µM, first compound 0.000949 µM): 1.68%
- viability, T/C (second compound 3.16 µM, first compound 0.003 µM): 0.13%
- viability, T/C (second compound 3.16 µM, first compound 0.00949 µM): 0.65%
- viability, T/C (second compound 3.16 µM, first compound 0.03 µM): 0.08%
- viability, T/C (second compound 3.16 µM, first compound 0.0949 µM): 0.1%
- viability, T/C (second compound 3.16 µM, first compound 0.3 µM): 0.11%
- viability, T/C (second compound 10 µM, first compound 0.000949 µM): 1.83%
- viability, T/C (second compound 10 µM, first compound 0.003 µM): 0.15%
- viability, T/C (second compound 10 µM, first compound 0.00949 µM): 0.13%
- viability, T/C (second compound 10 µM, first compound 0.03 µM): 0.12%
- viability, T/C (second compound 10 µM, first compound 0.0949 µM): 0.28%
- viability, T/C (second compound 10 µM, first compound 0.3 µM): 0.12%
